Source: publication PMC11732987, “Enantioselective OTUD7B fragment discovery through chemoproteomics screening and high-throughput optimisation” (Communications Chemistry, 2025)

What was measured:
OTUD7B [1] = target: T1, OTUD7B (Homo sapiens, UniProt Q6GQQ9); experiment: Ub-Rho110Gly DUB activity assay; also intact protein LC-MS kinetics (kinact/KI […] ^-1 s^-1), SiteID LC-MS/MS, lysate ABPP (TE50 […]); type: biochemical; parameters: OTU domain; OTUD7B aa129-438 (intact protein LC-MS), aa129–538 (SiteID)
T1 sequence (Q6GQQ9 129-438): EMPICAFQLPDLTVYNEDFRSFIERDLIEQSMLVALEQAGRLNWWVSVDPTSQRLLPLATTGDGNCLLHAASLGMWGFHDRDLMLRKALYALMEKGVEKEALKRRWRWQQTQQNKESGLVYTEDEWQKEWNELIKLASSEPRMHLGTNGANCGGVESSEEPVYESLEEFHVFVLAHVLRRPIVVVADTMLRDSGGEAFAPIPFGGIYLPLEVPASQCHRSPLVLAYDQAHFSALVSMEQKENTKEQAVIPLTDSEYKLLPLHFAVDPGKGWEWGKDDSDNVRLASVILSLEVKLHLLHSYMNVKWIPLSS

OTUD7B [2] = target: T1, OTUD7B; experiment: Ub-Rho110Gly DUB activity assay; also intact protein LC-MS kinetics (kinact/KI […] ^-1 s^-1), lysate ABPP (TE50 […]); type: biochemical; parameters: OTUD7B aa129-438 (intact protein LC-MS)

IC50 (OTUD7B [1]) [µM] | IC50 (OTUD7B [2]) [µM] | SMILES
3.5 |  | O=C(CCl)N[C@H]1CCCc2ccccc21 [compound 29]
 | 58.3 | O=C(CCl)N[C@@H]1CCCc2ccccc21 [compound 30]
